# “Also recorded” adds a separate entry of the source. Read-outs that look alike come from different tables or passages of the source.
# Assays:
# [1] = human, cited from earlier work
# [2] = young women, 2.0 and 4.0 mg orally; cited from earlier work
# ovine genital organs = assay: Experiments in sheep: estrogenic effect of estriol under trimegestone; format: in vivo; conditions: on trimegestone
# Text: This estrogenic effect in the genital tract in the presence of a progestogen leads to prevention of spotting and intermenstrual bleeding in humans. Such bleedings on the “pill” are an expression of an endometrial estrogen deficiency.
# ovariectomized rodents = conditions: parenteral administration; cited from earlier work
# estrogen receptor ERß = estrogen receptor ERß (Homo sapiens, UniProt Q92731); conditions: cited from earlier work
# Chain of estrogen receptor ERß (Q92731 whole entry): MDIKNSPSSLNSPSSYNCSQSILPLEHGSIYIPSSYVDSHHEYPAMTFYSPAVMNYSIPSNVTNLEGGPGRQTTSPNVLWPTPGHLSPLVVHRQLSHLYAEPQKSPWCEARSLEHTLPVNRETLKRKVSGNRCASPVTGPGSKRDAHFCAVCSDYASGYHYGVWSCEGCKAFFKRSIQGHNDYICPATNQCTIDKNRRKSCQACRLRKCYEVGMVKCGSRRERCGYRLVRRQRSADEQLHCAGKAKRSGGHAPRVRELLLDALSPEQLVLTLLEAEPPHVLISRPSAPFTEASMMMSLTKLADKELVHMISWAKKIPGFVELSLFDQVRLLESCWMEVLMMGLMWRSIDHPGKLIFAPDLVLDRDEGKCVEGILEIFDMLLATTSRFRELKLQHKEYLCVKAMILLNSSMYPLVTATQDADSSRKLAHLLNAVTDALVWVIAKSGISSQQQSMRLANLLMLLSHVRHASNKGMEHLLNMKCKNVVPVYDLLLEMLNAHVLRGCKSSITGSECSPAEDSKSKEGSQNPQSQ
# ovulation = assay: Clinical study of vaginal rings: ovulation inhibition, follicular maturation; format: in vivo, women; conditions: used release rate of estriol alone
# Description: Testing of three vaginal ring prototypes (Device 1, Device 2, and Device 3, described above) in 12 women as preformed. The expected average release rate per day of each device is described in Table 2. Vaginal ring (VR) insertion was performed after pill cycle completion and menstrual bleeding. Observation of a VR over a period of 21 days. Follow-up after removal of the VR. All VR variants tested inhibit ovulation. Ovulation inhibition persisted for more than 7 days after removal of the rings. Signs of follicular maturation at the start of treatment (higher oestradiol levels) disappear during treatment. The effect reflects inhibition of follicular maturation. For the most part, there were no bleeding events during treatment at all and, where they did occur, only to a very small extent (“spotting”). Withdrawal bleeding was observed only after the highest trimegestone dosage.
# The course of the estradiol levels in the circulation reflects follicular maturation in the ovary. FIG. 5 depicts the individual serum concentrations of estradiol during single vaginal application of Device 3. […] After removal of the vaginal ring, the estradiol values increase starting from baseline. This increase reflects follicular maturation. […] FIG. 6 depicts the individual serum concentrations of progesterone during single vaginal application of Device 3. […]
# SHBG = conditions: women, entire range of tested doses; cited from earlier work
smiles,measurement,setting,value
"C#C[C@]1(O)CC[C@H]2[C@@H]3CCc4cc(O)ccc4[C@H]3CC[C@@]21C [EE, 17α-ethinyl estradiol]",Oral bioavailability,[1]; oral vs intravenous,about 40%
same,First pass effect,[1]; oral,60%
C[C@]12CC[C@@H]3c4ccc(O)cc4CC[C@H]3[C@@H]1CC[C@@H]2O [Estradiol-17ß],Oral bioavailability,[2],4.9+/−5%
C[C@]12CC[C@@H]3c4ccc(O)cc4CC[C@H]3[C@@H]1C[C@@H](O)[C@@H]2O [estriol],Estrogenic effect of estriol in the genital tract in the presence of trimegestone,ovine genital organs,is not inhibited; also recorded: are not attenuated
same,Estrogenic potency compared with estradiol,ovariectomized rodents,about factor ten weaker
same,Binding with ERß compared with estradiol,estrogen receptor ERß,weaker and less stable binding
same,Levels of FSH and LH,ovulation,decreased
same,Changes in surrogate parameter SHBG,SHBG,no relevant changes were seen
